Data taken from patent US9505798B2, “Steroid compounds as RORyt modulators and uses thereof” (New York University, priority 2010, dated 2016).

Key:
Assay type in all cases: cell-based
DHR3 = molecular target: T1, DHR3 (Drosophila melanogaster, UniProt P31396); experiment: S2 cell DHR3 luciferase reporter; settings: 10 μM, FIG. 1c
T1 construct: Drosophila DHR3 (amino acids 120 to end); expressed in transfected cells
Description: The Drosophila S2 cell line was originally purchased from Invitrogen and was maintained in Schneider's medium supplemented with 10% heat-inactivated bovine fetal calf serum and antibiotics (Invitrogen). Gal4 DNA binding domain (G4 DBD) corresponding to amino acids 1 through 147 of Gal4 protein was PCR amplified to make a fusion construct with mouse RORγt (amino acids 79 to the carboxyl terminal end) lacking its DNA binding domain. The resulting chimeric gene was subcloned into the copper inducible pMT/V5-His A vector (Invitrogen). In a similar manner, Gal4 fusion constructs were prepared with mouse RORα (amino acids 142 to end) or Drosophila DHR3 (amino acids 120 to end). Coding sequences for firefly luciferase (Promega) were PCR amplified and subcloned into pUAST vector containing Gal4 binding enhancer sequences. Renilla luciferase construct under the polIII promoter was obtained from Dr. Dasgupta's laboratory (NYU medical center). In order to generate stable cell lines, cells were co-transfected with pMT-G4 DBD-RORγt, pMT-G4 DBD-RORα, pMT-G4 DBD-DHR3, or pMT-G4 DBDVP16 and pHygro plasmids (Invitrogen) and screened for resistant colonies in the presence of hygromycin (0.3 mg/mL). […]

C. elegans Daf12 = molecular target: T2, C. elegans Daf12 (Caenorhabditis elegans, UniProt G5EFF5); experiment: S2 cell Daf12 reporter
T2 construct: C. elegans Daf12 (amino acids 184 to end); expressed in transfected cells; host or cells: Drosophila S2 cells
Description: The Drosophila S2 cell line was originally purchased from Invitrogen and was maintained in Schneider's Drosophila medium supplemented with 10% heat-inactivated bovine fetal calf serum and 1× antibiotic-antimycotic solution (Invitrogen). The Gal4 DNA binding domain (G4 DBD), corresponding to amino acids 1 through 147 of the Gal4 protein, was PCR amplified to make the fusion construct with murine RORγ (amino acids 79 to the carboxyl terminal end) lacking its DNA binding domain. The resulting chimeric gene was subcloned into the copper inducible pMT/V5-His A vector (Invitrogen) and into the constitutive pAc vector. Similar methods yielded fusion constructs between G4 DBD and murine RORα (amino acids 142 to end), Drosophila DHR3 (amino acids 120 to end), C. elegans Daf12 (amino acids 184 to end), and herpes simplex virus VP16 (amino acids 413 to end). Coding sequences for firefly luciferase (Promega) were PCR amplified and subcloned into the pUAST vector containing five Gal4 binding enhancer sequences. The Renilla luciferase construct under a pol III promoter and the pAc vector were obtained from R. Dasgupta (NYU School of Medicine). […]

human androgen receptor = molecular target: T3, human androgen receptor (Homo sapiens, UniProt P10275); experiment: S2 cell human androgen receptor reporter
T3 construct: expressed in transfected cells; host or cells: Drosophila S2 cells, plasmid pMK33-hAR

[1] = molecular target: T4, RORγt binding to Il17a/f and Il23r loci (Mus musculus, UniProt P51450); experiment: Chromatin immunoprecipitation of RORγt at target loci in Th17-polarized cells; settings: 10 and 20 μM, ChIP
T4 construct: endogenous in cells; host or cells: mouse Th17-polarized CD4+ T cells
T4 sequence (P51450 1-495 isoform P51450-2): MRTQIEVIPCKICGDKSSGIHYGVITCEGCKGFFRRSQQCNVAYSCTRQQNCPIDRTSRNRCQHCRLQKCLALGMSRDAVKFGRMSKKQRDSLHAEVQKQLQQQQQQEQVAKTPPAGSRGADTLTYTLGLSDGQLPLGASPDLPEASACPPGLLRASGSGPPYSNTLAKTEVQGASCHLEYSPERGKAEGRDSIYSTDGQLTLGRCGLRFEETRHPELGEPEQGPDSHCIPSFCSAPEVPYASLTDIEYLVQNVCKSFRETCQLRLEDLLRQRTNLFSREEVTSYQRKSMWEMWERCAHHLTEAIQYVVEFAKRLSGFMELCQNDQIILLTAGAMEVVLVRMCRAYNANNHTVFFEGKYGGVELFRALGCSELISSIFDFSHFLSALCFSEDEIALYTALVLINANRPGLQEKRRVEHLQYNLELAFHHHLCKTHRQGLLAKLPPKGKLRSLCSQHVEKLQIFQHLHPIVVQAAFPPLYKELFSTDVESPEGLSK

T3 sequence (P10275 whole entry): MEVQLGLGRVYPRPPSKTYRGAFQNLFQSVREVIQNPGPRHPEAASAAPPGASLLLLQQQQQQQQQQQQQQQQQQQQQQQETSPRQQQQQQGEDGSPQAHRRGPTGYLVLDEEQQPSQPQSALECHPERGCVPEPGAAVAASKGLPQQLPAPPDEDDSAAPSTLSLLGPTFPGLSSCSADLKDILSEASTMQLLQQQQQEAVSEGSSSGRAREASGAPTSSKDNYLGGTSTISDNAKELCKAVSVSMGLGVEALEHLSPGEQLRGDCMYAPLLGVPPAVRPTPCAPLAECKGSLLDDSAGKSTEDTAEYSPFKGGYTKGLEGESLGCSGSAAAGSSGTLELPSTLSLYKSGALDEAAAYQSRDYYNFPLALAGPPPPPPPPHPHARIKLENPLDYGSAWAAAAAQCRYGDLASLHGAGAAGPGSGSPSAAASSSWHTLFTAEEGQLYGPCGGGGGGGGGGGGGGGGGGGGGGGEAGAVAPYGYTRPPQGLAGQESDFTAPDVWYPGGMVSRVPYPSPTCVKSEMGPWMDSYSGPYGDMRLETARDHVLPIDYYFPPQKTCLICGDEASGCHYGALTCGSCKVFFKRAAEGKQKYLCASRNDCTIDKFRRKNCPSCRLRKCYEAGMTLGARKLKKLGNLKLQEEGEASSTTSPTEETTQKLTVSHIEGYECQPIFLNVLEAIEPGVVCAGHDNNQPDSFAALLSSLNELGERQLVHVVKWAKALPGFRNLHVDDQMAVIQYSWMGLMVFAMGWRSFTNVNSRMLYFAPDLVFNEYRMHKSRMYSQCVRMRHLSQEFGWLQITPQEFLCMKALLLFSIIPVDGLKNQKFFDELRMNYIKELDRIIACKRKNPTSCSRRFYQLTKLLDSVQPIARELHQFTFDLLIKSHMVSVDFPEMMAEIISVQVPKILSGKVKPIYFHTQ
T2 sequence (G5EFF5 184-753 limits assumed): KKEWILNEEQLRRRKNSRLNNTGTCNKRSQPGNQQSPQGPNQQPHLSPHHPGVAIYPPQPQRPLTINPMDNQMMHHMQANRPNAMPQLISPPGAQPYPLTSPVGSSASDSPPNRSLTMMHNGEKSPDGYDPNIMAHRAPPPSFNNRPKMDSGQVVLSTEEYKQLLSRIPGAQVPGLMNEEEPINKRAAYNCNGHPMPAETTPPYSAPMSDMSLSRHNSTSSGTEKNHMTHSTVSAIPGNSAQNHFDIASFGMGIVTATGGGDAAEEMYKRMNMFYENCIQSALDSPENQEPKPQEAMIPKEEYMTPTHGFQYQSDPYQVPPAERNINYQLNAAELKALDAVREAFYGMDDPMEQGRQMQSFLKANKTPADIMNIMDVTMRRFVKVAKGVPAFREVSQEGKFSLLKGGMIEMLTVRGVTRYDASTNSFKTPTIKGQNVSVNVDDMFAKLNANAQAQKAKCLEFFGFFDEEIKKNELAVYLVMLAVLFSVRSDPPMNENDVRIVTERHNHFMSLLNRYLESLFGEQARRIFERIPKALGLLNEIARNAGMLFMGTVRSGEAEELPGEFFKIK
T1 sequence (P31396 120-487 limits assumed): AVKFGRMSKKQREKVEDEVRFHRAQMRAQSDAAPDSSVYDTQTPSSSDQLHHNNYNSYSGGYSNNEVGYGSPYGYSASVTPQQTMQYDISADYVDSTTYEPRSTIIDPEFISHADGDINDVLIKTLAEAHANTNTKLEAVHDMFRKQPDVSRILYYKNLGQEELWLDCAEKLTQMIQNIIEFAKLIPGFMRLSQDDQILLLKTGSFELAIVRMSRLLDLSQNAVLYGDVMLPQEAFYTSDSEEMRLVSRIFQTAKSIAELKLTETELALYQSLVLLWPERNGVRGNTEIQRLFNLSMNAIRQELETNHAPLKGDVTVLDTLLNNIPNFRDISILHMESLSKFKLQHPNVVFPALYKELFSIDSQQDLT

For C[C@H]1O[C@@H](O[C@H]2[C@@H](O)C[C@H](O[C@H]3[C@@H](O)C[C@H](O[C@H]4CC[C@@]5(C)[C@H](CC[C@@H]6[C@@H]5C[C@@H](O)[C@]5(C)[C@@H](C7=CC(=O)OC7)CC[C@]65O)C4)O[C@@H]3C)O[C@@H]2C)C[C@H](O)[C@@H]1O [Digoxin], the “effect on transcriptional activity of DHR3” value (DHR3) was “no effect”, the “inhibition of C. elegans Daf12 activity” value (C. elegans Daf12) was “did not inhibit” and the “inhibition of human androgen receptor activity” value (human androgen receptor) was “did not inhibit”. The “RORγt binding to sites in Il17a/f and Il23r” value [1] was “substantially reduced”.
